9 compounds from patent publication US20250154170A1, “FUSED PYRIMIDINES AS KRAS INHIBITORS” (priority 2022, published 2025) can be followed below.

The target of one experiment is K-Ras G12D (Homo sapiens, UniProt P01116, G12D). Description: K-Ras G12D activation by SOS1 (KRAS G12D activation by SOS1cat assay, HTRF). Format: biochemical. The note with it: mean, SOS1cat mediated loading of GST-KRAS G12D-GDP with fluorescent GTP analogue, read-out: K-Ras G12D activation by SOS1 IC50 - [mol/l] (mean). As for the experimental part: (§1) Preparation of test compound dilutions. A 100-fold concentrated solution of the test compound (50 nL) in DMSO was transferred to microtiter test plates (384 or 1,536 wells, Greiner Bio-One, Germany) using either a Hummingbird liquid handler (Digilab, MA, USA) or an Echo acoustic system (Labcyte, CA, USA). Plates were sealed with adhesive foil or heat-sealed and stored at −20 C until use. Serial dilutions of test compounds were prepared in 100% DMSO using a Precision Pipetting System (BioTek, USA).
(§2) Measurement and evaluation of inhibition data, calculation of IC50 values. Homogeneous time-resolved fluorescence (HTRF) was measured with a PHERAstar reader (BMG, Germany) using the HTRF module (excitation: 337 nm; emission 1: 620 nm, emission 2: 665 nm). The ratio of the emissions at 665 and 620 nm was used as the specific signal for further evaluation. The data were normalized using the controls: DMSO=0% inhibition, inhibition control wells with inhibitor control solution=100% inhibition. Compounds were tested in duplicates at up to 11 concentrations (e.g. 20 μM, 5.7 μM, 1.6 μM, 0.47 μM, 0.13 μM, 38 nM, 11 nM, 3.1 nM, 0.89 nM, 0.25 nM and 0.073 nM). IC50 values were calculated using a four-parameter fit, with a commercial software package (Genedata Screener, Switzerland).
(§3) KRAS^G12C activation by SOS1^cat assay (“On-assay”). This assay quantifies SOS1^cat mediated loading of KRAS^G12C-GDP with a fluorescent GTP analogue. Detection of successful loading was achieved by measuring resonance energy transfer from anti-GST-terbium (FRET donor) bound to GST-KRAS^G12C to the loaded fluorescent GTP analogue (FRET acceptor). The fluorescent GTP analogue EDA-GTP-DY-647P1 [2′/3′-O-(2-aminoethyl-carbamoyl)guanosine-5′-triphosphate labelled with DY-647P1 (Dyomics GmbH, Germany)] was synthesized by Jena Bioscience (Germany) and supplied as a 1 mM aqueous solution. A KRAS^G12C working solution was prepared in assay buffer [10 mM HEPES pH 7.4 (AppliChem), 150 mM NaCl (Sigma), 5 mM MgCl2 (Sigma), 1 mM DTT (Thermo Fisher), 0.05% BSA Fraction V pH 7.0 (ICN Biomedicals), 0.0025% (v/v) Igepal (Sigma)] containing GST-KRAS^G12C (final concentration in assay 50 nM) and anti-GST-terbium (Cisbio, France) (final concentration in assay 1 nM). A SOS1^cat working solution was prepared in assay buffer containing SOS1^cat (final concentration 10 nM) and EDA-GTP-DY-647P1 (final concentration 100 nM). An inhibitor control solution was prepared in assay buffer containing EDA-GTP-DY-647P1 (final concentration 100 nM) without SOS1^cat. All steps of the assay were performed at 20° C. A volume of 3 μL of the KRAS^G12C working solution was added to all wells of the test plate using a Multidrop dispenser (Thermo LabSystems). After 15 min, 2 μL of the SOS1^ct working solution was added to all wells, except for the inhibitor control solution wells. After 30 min incubation, HTRF was measured.
(§4) G12D and Wild-type KRAS activation by SOS1cat assays. These assays quantify human SOS1^cat mediated loading of wild-type GST-KRAS^WT-GDP or GST-KRAS^G12D-GDP with a fluorescent GTP analogue. The assay was performed similarly to the KRAS^G12C activation by SOS1^cat assay with the following differences: final concentration of SOS1^cat of 60 nM and final incubation time before measurement of 10 min for KRAS^G12D assay, final concentration of SOS1^cat of 20 nM and final incubation time before measurement of 15 min for wild-type KRAS assay, respectively. GST-KRAS^G12C was replaced by GST-KRAS^WT or GST-KRAS^G12D, respectively, also at 50 nM final concentration.
KRAS^G12D activation by SOS1^cat assay (“On-assay”). This assay quantifies SOS1^cat mediated loading of KRAS^G12D-GDP with a fluorescent GTP analogue. Detection of successful loading was achieved by measuring resonance energy transfer from anti-GST-terbium (FRET donor) bound to GST-KRAS^G12D to the loaded fluorescent GTP analogue (FRET acceptor).
In general terms: Time-resolved FRET reads energy transfer from a long-lived donor to a nearby acceptor.

Another experiment has as its target K-Ras-wildtype (Homo sapiens, UniProt P01116). Description: K-Ras-wildtype activation by SOS1 (wild-type KRAS activation by SOS1cat assay, HTRF). Format: biochemical. To be noted: mean, SOS1cat mediated loading of wild-type GST-KRAS-GDP with fluorescent GTP analogue, read-out: K-Ras-wildtype activation by SOS1 IC50 - [mol/l] (mean). The protocol:
as §1, §2, §3, §4
Wild-type KRAS activation by SOS1^cat assay. This assay quantifies human SOS1^cat mediated loading of wild-type GST-KRAS-GDP with a fluorescent GTP analogue. The assay was performed similarly to the KRAS^G12D activation by SOS1^cat assay just by replacement of GST-KRAS^G12D by wild-type GST-KRAS while concentrations of all components and incubation times were the same.

pIC50: −log10 of the molar value. Bounds are passed on as bounds.

Chain of K-Ras-wildtype (P01116 1-188 isoform P01116-2): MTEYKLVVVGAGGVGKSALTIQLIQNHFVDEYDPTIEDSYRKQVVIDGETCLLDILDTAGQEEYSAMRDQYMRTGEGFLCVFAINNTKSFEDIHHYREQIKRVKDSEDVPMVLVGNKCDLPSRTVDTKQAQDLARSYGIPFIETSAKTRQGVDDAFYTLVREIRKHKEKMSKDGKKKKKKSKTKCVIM
Chain of K-Ras G12D (P01116 1-188 isoform P01116-2 G12D): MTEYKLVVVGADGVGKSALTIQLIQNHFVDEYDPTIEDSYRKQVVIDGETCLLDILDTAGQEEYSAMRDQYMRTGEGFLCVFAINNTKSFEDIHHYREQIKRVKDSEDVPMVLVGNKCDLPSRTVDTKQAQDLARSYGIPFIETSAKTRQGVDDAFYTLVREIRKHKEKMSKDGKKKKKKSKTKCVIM

With `Oc1cc(Oc2nc3c(N4CC5CCC(C4)N5)nc(OCC45CCCN4CCC5)nc3[nH]2)c2ccccc2c1` [Example 10, 4-({6-(3,8-diazabicyclo[3.2.1]octan-3-yl)-2-[(tetrahydro-1H-pyrrolizin-7a(5H)-yl)methoxy]-9H-purin-8-yl}oxy)naphthalen-2-ol], the pIC50 on K-Ras G12D and at K-Ras-wildtype was under 4.70 throughout.

For the compound `Oc1cc(Cc2nc3c(N4CC5CCC(C4)N5)nc(OCC45CCCN4CCC5)nc3s2)c2c(F)cccc2c1` [Example 14, 4-({7-(3,8-diazabicyclo[3.2.1]octan-3-yl)-5-[(tetrahydro-1H-pyrrolizin-7a(5H)-yl)methoxy][1,3]thiazolo[5,4-d]pyrimidin-2-yl}methyl)-5-fluoronaphthalen-2-ol], the pIC50 at K-Ras G12D is 6.20; on K-Ras-wildtype, under 4.70.

As to `C=Cc1c(F)ccc2cc(O)cc(Oc3nc4c(N5CC6CCC(C5)N6)nc(OC[C@@]56CCCN5C[C@H](F)C6)nc4s3)c12` [Example 17, 4-{[7-(3,8-diazabicyclo[3.2.1]octan-3-yl)-5-{[(2R,7aS)-2-fluorotetrahydro-1H-pyrrolizin-7a(5H)-yl]methoxy}[1,3]thiazolo[5,4-d]pyrimidin-2-yl]oxy}-5-ethenyl-6-fluoronaphthalen-2-ol], the pIC50 at K-Ras G12D was 7.87; on K-Ras-wildtype it was 6.37.

As for `C#Cc1c(F)ccc2cc(O)cc(Oc3nc4c(N5C[C@H]6CC[C@@H](C5)N6)nc(OCC56CCCN5CCC6)nc4s3)c12` [Example 5, 4-({7-[(1R,5S)-3,8-diazabicyclo[3.2.1]octan-3-yl]-5-[(tetrahydro-1H-pyrrolizin-7a(5H)-yl)methoxy][1,3]thiazolo[5,4-d]pyrimidin-2-yl}oxy)-5-ethynyl-6-fluoronaphthalen-2-ol], the pIC50 is 8.42 at K-Ras G12D and 7.16 at K-Ras-wildtype.

`C#Cc1c(F)ccc2cc(O)cc(Oc3nc4c(N5CC6COCC(C5)N6)nc(OC[C@@]56CCCN5C[C@H](F)C6)nc4s3)c12` [Example 12, 5-ethynyl-6-fluoro-4-{[5-{[(2R,7aS)-2-fluorotetrahydro-1H-pyrrolizin-7a(5H)-yl]methoxy}-7-(3-oxa-7,9-diazabicyclo[3.3.1]nonan-7-yl)[1,3]thiazolo[5,4-d]pyrimidin-2-yl]oxy}naphthalen-2-ol]: the pIC50 on K-Ras G12D was 7.63; at K-Ras-wildtype, 7.80.

Regarding `Oc1cc(Oc2nc3c(N4C[C@H]5CC[C@@H](C4)N5)nc(OCC45CCCN4CCC5)nc3s2)c2c(F)cccc2c1` [Example 3, 4-({7-[(1R,5S)-3,8-diazabicyclo[3.2.1]octan-3-yl]-5-[(tetrahydro-1H-pyrrolizin-7a(5H)-yl)methoxy][1,3]thiazolo[5,4-d]pyrimidin-2-yl}oxy)-5-fluoronaphthalen-2-ol], the pIC50 on K-Ras G12D is 6.49; at K-Ras-wildtype it was 5.09.

For the compound `C#Cc1c(F)ccc2cc(O)cc(Oc3nc4c(N5CC6CCC(C5)NC6)nc(OC[C@@]56CCCN5C[C@H](F)C6)nc4s3)c12` (relative stereo) [Example 16, 4-[(7-[(1R*,5R*)-3,6-diazabicyclo[3.2.2]nonan-3-yl]-5-{[(2R,7aS)-2-fluorotetrahydro-1H-pyrrolizin-7a(5H)-yl]methoxy}[1,3]thiazolo[5,4-d]pyrimidin-2-yl)oxy]-5-ethynyl-6-fluoronaphthalen-2-ol], the pIC50 at K-Ras G12D was 7.82; at K-Ras-wildtype, 6.67.

In the case of `CN(c1nc2c(N3CC4CCC(C3)N4)nc(OC[C@@]34CCCN3C[C@H](F)C4)nc2s1)c1cc(O)cc2ccccc12` [Example 29, 4-{[7-(3,8-diazabicyclo[3.2.1]octan-3-yl)-5-{[(2R,7aS)-2-fluorotetrahydro-1H-pyrrolizin-7a(5H)-yl]methoxy}[1,3]thiazolo[5,4-d]pyrimidin-2-yl](methyl)amino}naphthalen-2-ol], the figures for the pIC50 at K-Ras G12D and on K-Ras-wildtype were 6.55 and 4.92, respectively.

Regarding `C#Cc1c(F)ccc2cc(O)cc(Oc3nc4c(N5C[C@H]6CC(F)[C@@H](C5)N6)nc(OC[C@@]56CCCN5C[C@H](F)C6)nc4s3)c12` (single isomer, unassigned) [Example 24, 5-Ethynyl-6-fluoro-4-[(7-[(1R*,5R*)-6-fluoro-3,8-diazabicyclo[3.2.1]octan-3-yl]-5-{[(2R,7aS)-2-fluorotetrahydro-1H-pyrrolizin-7a(5H)-yl]methoxy}[1,3]thiazolo[5,4-d]pyrimidin-2-yl)oxy]naphthalen-2-ol], the figures for the pIC50 on K-Ras G12D and at K-Ras-wildtype were 7.57 and 7.62, respectively.
